How the values were obtained:
[1] = system: AGE receptor (FEEL-1, FEEL-2, CD-36, AGE-R1, AGE-R2, AGE-R3 and RAGE); experiment: mRNA levels of AGE receptors by qRT-PCR in normal human dermal fibroblasts; type: cell-based; details: VB alone, no AGE, 37° C. 4 hours, compared with untreated group
Experimental: (§1) Normal human dermal fibroblasts (NHDF), juvenile foreskin (C-12300, PromoCell) were cultured in a dedicated medium, Fibroblast Growth Medium (C-23010, PromoCell) at 37° C. in a 5% CO2 incubator.
(§2) First, as a co-existence group of VB and AGE, normal human dermal fibroblasts were treated with AGE (100 μg/mL), and the above VB2 (concentration after dilution: 115 μg/ml) and VB3 (concentration after dilution: 1000 μg/mL) diluted to an accurate 1/1000 amount were each added and retained at 37° C. for 4 hours. […]
(§3) Then, total RNA was extracted from the cells using Trizol reagent (Ambion), and mRNA levels of AGE receptor (FEEL-1, FEEL-2, CD-36, AGE-R1, AGE-R2, AGE-R3 and RAGE) and heat shock protein (Hsp104, gp96, Hsp90, Hsp70, Hsp60, and Hsp32) were measured by qRT-PCR (one-step quantitative reverse transcription-polymerase chain reaction) method. […]
(§4) The qRT-PCR method used for the measurement of AGE receptor, heat shock protein, aquaporin, hyaluronic acid, and Elastin will be described. In the qRT-PCR method, 500 ng of the obtained total RNA was used as a template for PCR, and one step RT-PCR capable of performing CDNA synthesis by a reverse transcription reaction (Reverse Transcriptase; RT reaction) and quantitative PCR in one test tube was performed using Luna Universal One-Step qRT-PCR Kit. […]

[2] = system: FEEL-1; experiment: FEEL-1 mRNA level by qRT-PCR in AGE-treated fibroblasts; type: cell-based, human; details: co-existence with AGE 100 μg/mL, 4 hours, compared with AGE single stimulation group
Experimental: as §1, §2, §3, §4

[3] = system: FEEL-2; experiment: FEEL-2 mRNA level by qRT-PCR in AGE-treated fibroblasts; type: cell-based, human; details: co-existence with AGE 100 μg/mL, 4 hours, compared with AGE single stimulation group
Experimental: as §1, §2, §3, §4

[4] = system: RAGE; experiment: RAGE mRNA level by qRT-PCR in AGE-treated fibroblasts; type: cell-based, human; details: co-existence with AGE 100 μg/mL, 4 hours, compared with AGE single stimulation group
Experimental: as §1, §2, §3, §4

[5] = system: heat shock protein (Hsp104, gp96, Hsp90, Hsp70, Hsp60, and Hsp32); experiment: mRNA levels of heat shock proteins by qRT-PCR in fibroblasts; type: cell-based, human; details: 4 hours
Experimental: as §1
First, as a co-existence group of VB and AGE, normal human dermal fibroblasts were treated with AGE (100 μg/mL), and the above VB2 (concentration after dilution: 115 μg/ml) and VB3 (concentration after dilution: 1000 μg/mL) diluted to an accurate 1/1000 amount were each added and retained at 37° C. for 4 hours.
In addition, as the VB single stimulation group, normal human dermal fibroblasts were not treated with AGE, and the above VB2 and VB3 diluted to an accurate 1/1000 amount were each added and held at 37° C. for 4 hours. Furthermore, as the AGE single stimulation group, normal human dermal fibroblasts were treated with AGE and kept at 37° C. for 4 hours without addition of VB2 or VB3. In addition, as an untreated group, normal human dermal fibroblasts were not treated with AGE, and were kept at 37° C. for 4 hours without adding VB2 or VB3.
Then, total RNA was extracted from the cells using Trizol reagent (Ambion), and mRNA levels of AGE receptor (FEEL-1, FEEL-2, CD-36, AGE-R1, AGE-R2, AGE-R3 and RAGE) and heat shock protein (Hsp104, gp96, Hsp90, Hsp70, Hsp60, and Hsp32) were measured by qRT-PCR (one-step quantitative reverse transcription-polymerase chain reaction) method.
The measurement results for AGE receptor are shown in FIG. 1, and the measurement results for heat shock protein are shown in FIG. 2. In FIG. 1 and FIG. 2, for the co-existence group of AGE and VB, samples to which VB2 and VB3 were added are indicated as VB2(+)AGE and VB3(+)AGE, respectively, and these values were shown in comparison with the AGE single stimulation group. In addition, for the VB single stimulation group, samples to which VB2 and VB3 were added were indicated as VB2 alone and VB3 alone, respectively, and these values were shown in comparison with the untreated group.
(§5) The qRT-PCR method used for the measurement of AGE receptor, heat shock protein, aquaporin, hyaluronic acid, and Elastin will be described. In the qRT-PCR method, 500 ng of the obtained total RNA was used as a template for PCR, and one step RT-PCR capable of performing CDNA synthesis by a reverse transcription reaction (Reverse Transcriptase; RT reaction) and quantitative PCR in one test tube was performed using Luna Universal One-Step qRT-PCR Kit.
As a PCR device, Thermal Cycler Dice Real Time System II manufactured by Takara was used. […]
(§6) The reaction was performed under the conditions of 1 cycle of 30 seconds at 95° C., and further cycles of 5 seconds at 95° C. and 30 seconds at 60° C. for 50 cycles. A variation in mRNA expression by 4 times or more (2 cycles as PCR reaction) was determined as a significant difference.

[6] = system: intracellular ROS; experiment: Intracellular ROS against AGE (DCF-DA fluorescence); type: cell-based, human; details: AGE 100 μg/mL, 4 hours, FIG. 3
Experimental: as §1
Normal human dermal fibroblasts were treated with AGE (100 μg/mL) and maintained at 37° C. for 4 hours with the addition of VB2 and VB3, respectively. Here, VB2 and VB3 were added at concentrations of 1 μg/mL, 10 μg/mL, 100 μg/mL, and 300 μg/mL, respectively. In FIGS. 3 and 4, which are graphs showing the results, those to which VB2was added were denoted as “VB2-AGE”, and those to which VB3 was added were denoted as “VB3-AGE”.
As Control, measurement was also performed on normal human dermal fibroblasts which were not treated with AGE and were held at 37° C. for 4 hours without addition of VB2 or VB3, and as an AGE single stimulation group, measurement was also performed on normal human dermal fibroblasts which were treated with AGE (100 μg/mL) and were held at 37° C. for 4 hours without addition of VB2 or VB3 (in FIGS. 3 and 4, it is denoted as “AGE”.).
Measurement of intracellular ROS was performed using fluorescence using dichlorofluorescin diacetate (DCF-DA; Invitrogen, Carlsbad, CA, USA). […] The intracellular ROS level was measured at an excitation wavelength of 525 nm using fluorescence intensity using the micro plate reader (SYNERGY/HT, BioTek, Japan).

[7] = system: normal human dermal fibroblasts; experiment: Cell viability under hydrogen peroxide oxidative stress (Cell counting-8 kit); type: cell-based; details: for cell viability, trend: 1-300 μg/mL
Experimental: as §1
(§7) Normal human dermal fibroblasts were cultured for 2 hours in a culture solution to which 0.2 mM hydrogen peroxide was added, then washed off with PBS, and replaced with a normal medium to continue the cultivation. VB2 and VB3 were each added at any timing before or after hydrogen peroxide was added, and co-cultured for 4 hours. Thereafter, the cells or the culture solution were recovered.
In FIG. 5 which is a graph showing the results, a sample obtained by adding VB2 or VB3 after adding hydrogen peroxide was denoted as “H2O2-VB2” and “H2O2-VB3”, respectively, and a sample obtained by adding hydrogen peroxide after adding VB2 or VB3 was denoted as “VB2-H2O2” and “VB3-H2O2”, respectively.
Here, VB2 and VB3 were added at concentrations of 1 μg/mL, 10 μg/mL, 100 μg/mL, and 300 μg/mL, respectively.
The normal human dermal fibroblasts to which neither hydrogen peroxide nor VB2 nor VB3 was added were treated in the same manner as described above, and measured as Control. In addition, a sample to which VB2 or VB3 was not added (in FIG. 5, it is denoted as “H2O2”) was also treated in the same manner as described above, and measurement was performed.
The number of surviving cells in normal human dermal fibroblasts was measured using Cell counting −8 kit (DOJINDO: , Japan).

[8] = system: intracellular ROS; experiment: Intracellular ROS production against hydrogen peroxide (DCF-DA); type: cell-based, human
Experimental: Measurement of intracellular ROS was performed using fluorescence using dichlorofluorescin diacetate (DCF-DA; Invitrogen, Carlsbad, CA, USA). Specifically, cells were washed with PBS, and then incubated with 10 μM DCF-DA at 37° C. for 20 minutes. The intracellular ROS level was measured at an excitation wavelength of 525 nm using fluorescence intensity using the micro plate reader (SYNERGY/HT, BioTek, Japan).
as §7
According to the procedure described in “Measurement of Cell Viability” above, normal human dermal fibroblasts were treated and cultured (co-culture), and cells or the culture solution was recovered. The concentrations of VB2 and VB3 used and the notation of the samples in FIGS. 6 and 7, which are graphs showing the results, are also similar to the above “Measurement of Cell Viability”.
The measurement of intracellular ROS and the measurement of superoxide (SOD) were performed by the same methods as the methods described in “Measurement of Intracellular Reactive Oxygen (ROS) Production and Superoxide (SOD) against AGE” above, respectively.
FIGS. 6 and 7 show the results of each sample when Control is 100%.

[9] = system: SOD; experiment: SOD amount against hydrogen peroxide (SOD Assay Kit); type: cell-based, human; details: added before and after 0.2 mM hydrogen peroxide, 1-300 μg/mL (H2O2 only 56% of Control)
Experimental: Superoxide (SOD) was measured using SOD Assay Kit (Cayman Chemical, Ann arbor, MI, USA). Cells that had been subjected to various treatments were incubated for 24 hours, and then a Lysis buffer was added, homogenized, and centrifuged. Then, 10 μL of each sample was mixed with 200 μL of xanthine oxidase at room temperature. After 30 minutes, the absorbance at 450 nm was measured.
as §7
According to the procedure described in “Measurement of Cell Viability” above, normal human dermal fibroblasts were treated and cultured (co-culture), and cells or the culture solution was recovered. The concentrations of VB2 and VB3 used and the notation of the samples in FIGS. 6 and 7, which are graphs showing the results, are also similar to the above “Measurement of Cell Viability”. […]

[10] = system: AQP-1; experiment: AQP-1 mRNA level under oxidative stress (qRT-PCR); type: cell-based, human
Experimental: as §7
(§8) According to the procedure described in “Measurement of Cell Viability” above, normal human dermal fibroblasts were treated and cultured (co-culture), and cells or the culture solution was recovered. The notation of the sample in FIGS. 8 and 9, which are graphs showing the results, is also the same as in the “Measurement of Cell Viability” described above.
(§9) The measurement of aquaporin was performed for AQP-1 and AQP-3 by a qRT-PCR method, and the measurement result was obtained by a ΔΔCt method. […] The qRT-PCR method is s specifically described in “qRT-PCR method” described later.
as §5
(§10) As a PCR device, Thermal Cycler Dice Real Time System II manufactured by Takara was used. As one reaction system, 10 μL of Luna Universal One-Step Reaction Mix (2×), 1 μL of Luna WarmStart RT Enzyme Mix (20×), 0.8 μL of Forward primer (10 μM), 0.8 μL of Reverse primer, and Total RNA as a template for the PCR were used, and the total amount was adjusted to 20 μL in Nuclease-free Water.
as §6

[11] = system: AQP-3; experiment: AQP-3 mRNA level under oxidative stress (qRT-PCR); type: cell-based, human
Experimental: as §7, §8, §9, §5, §10, §6

[12] = system: hyaluronic acid; experiment: Hyaluronic acid secreted into culture supernatant (ELISA); type: cell-based, human
Experimental: as §7
(§11) According to the procedure described in “Measurement of Cell Viability” above, normal human dermal fibroblasts were treated and cultured (co-culture), and cells or the culture solution was recovered. The concentrations of VB2 and VB3 used and the notation of the samples in FIGS. 10 and 11, which are graphs showing the results, are also similar to the above “Measurement of Cell Viability”.
(§12) The production amounts of hyaluronic acid and Elastin were measured by an ELISA method. The results of measuring the amount of hyaluronic acid secreted from normal human dermal fibroblasts into the culture supernatant by the ELISA method are shown in FIG. 10, and the results of measuring the amount of intracellular Elastin production by the ELISA method are shown in FIG. 11.

[13] = system: Elastin; experiment: Intracellular Elastin production (ELISA); type: cell-based, human
Experimental: as §7, §11, §12

[14] = added before or after 0.2 mM hydrogen peroxide
[15] = added in advance before oxidative stress, compared with addition after
[16] = added in advance before applying oxidative stress

K11H[(VO)3(SbW9O33)2] [VB2]
mRNA expression of AGE receptor [1]: did not affect
mRNA level of FEEL-1 [2]: significantly increased
mRNA level of FEEL-2 [3]: significantly increased
mRNA level of RAGE [4]: significantly increased
mRNA expression of Hsp ([5]; VB alone, no AGE, compared with untreated group): did not affect
mRNA levels of all Hsps other Hsp 90 among the examined Hsps ([5]; co-existence with AGE 100 μg/mL, compared with AGE single stimulation group): significantly increased
intracellular ROS under AGE stimulation [6]: suppress the increase in ROS
maximum cell viability ([7]; added after 0.2 mM hydrogen peroxide, 300 μg/mL, % of Control (H2O2 only 59%)): 76%
cell viability, trend ([7]; added after 0.2 mM hydrogen peroxide): increased in a concentration-dependent manner
cell viability, trend ([7]; added in advance before 0.2 mM hydrogen peroxide): significant increase in a concentration-dependent manner
ROS production ([8]; added before and after 0.2 mM hydrogen peroxide, 1-300 μg/mL): suppressed in a concentration-dependent manner
ROS production ([8]; treatment in advance before oxidative stress, compared with addition after): further suppressed
SOD amount [9]: tended to be recovered in a concentration-dependent manner
mRNA level of AQP-1 [10, 14]: increased
AQP-1 mRNA repair ability, addition before vs after oxidative stress [10, 15]: tended to have a stronger repair ability
mRNA level of AQP-3 [11, 14]: increased
AQP-3 mRNA repair ability, addition before vs after oxidative stress [11, 15]: tended to have a stronger repair ability
amount of hyaluronic acid ([12]; 0.2 mM hydrogen peroxide oxidative stress, culture supernatant): tended to be recovered
hyaluronic acid repair ability, addition before vs after oxidative stress [12, 15]: tended to have a stronger repair ability
Elastin production amount ([13]; added after application of oxidative stress (H2O2 only 56% of Control)): could not be recovered
Elastin production amount [13, 16]: significant recovery
concentration at which Elastin production amount was significantly higher than Control [13, 16]: ≥ 100 µg/mL
